Results published in patent publication US20130338106A1, “COMPOUNDS INHIBITING LEUCINE-RICH REPEAT KINASE ENZYME ACTIVITY” (priority 2011, published 2013).

How the values were obtained:
Format in all cases: biochemical
Settings in all cases: tested at 10 uM, read-out: percent inhibition of the kinase activity
ABL H396P = biological target: T1, ABL H396P (Homo sapiens, UniProt P00519, H396P); test: ProfilerPro Kinase Selectivity, ABL H396P
T1 construct: purchased Caliper LifeSciences
Procedure: (§1) Kinome selectivity profiling was performed using two example compounds according to the manufacturer's instructions using Caliper LifeSciences' ProfilerPro Kinase Selectivity Assay Kits. Compounds prepared in Examples 1 and 7 were tested at 10 uM and data were recorded using the Caliper LabChip® EZ Reader™. Each compounds' percent inhibition of the kinase activity measured in this manner is reported in the following lists.

ABL1 G250E = biological target: T2, ABL1 G250E (Homo sapiens, UniProt P00519, G250E); test: ProfilerPro Kinase Selectivity, ABL1 G250E
T2 construct: purchased Caliper LifeSciences
Procedure: as §1

BRSK1 = biological target: T3, BRSK1 (Homo sapiens, UniProt Q8TDC3); test: ProfilerPro Kinase Selectivity, BRSK1
T3 construct: purchased Caliper LifeSciences
Procedure: as §1

BTK = biological target: T4, BTK (Homo sapiens, UniProt Q06187); test: ProfilerPro Kinase Selectivity, BTK
T4 construct: purchased Caliper LifeSciences
Procedure: as §1

CAMK1A = biological target: T5, CAMK1A (Homo sapiens, UniProt Q14012); test: ProfilerPro Kinase Selectivity, CAMK1A
T5 construct: purchased Caliper LifeSciences
Procedure: as §1

CAMK1D = biological target: T6, CAMK1D (Homo sapiens, UniProt Q8IU85); test: ProfilerPro Kinase Selectivity, CAMK1D
T6 construct: purchased Caliper LifeSciences
Procedure: as §1

CK1E = biological target: T7, CK1E (Homo sapiens, UniProt P49674); test: ProfilerPro Kinase Selectivity, CK1E
T7 construct: purchased Caliper LifeSciences
Procedure: as §1

CSNK1A1 = biological target: T8, CSNK1A1 (Homo sapiens, UniProt P48729); test: ProfilerPro Kinase Selectivity, CSNK1A1
T8 construct: purchased Caliper LifeSciences
Procedure: as §1

C-TAK1 = biological target: T9, C-TAK1 (Homo sapiens, UniProt P27448); test: ProfilerPro Kinase Selectivity, C-TAK1
T9 construct: purchased Caliper LifeSciences
Procedure: as §1

DYRK1A = biological target: T10, DYRK1A (Homo sapiens, UniProt Q13627); test: ProfilerPro Kinase Selectivity, DYRK1A
T10 construct: purchased Caliper LifeSciences
Procedure: as §1

DYRK1B = biological target: T11, DYRK1B (Homo sapiens, UniProt Q9Y463); test: ProfilerPro Kinase Selectivity, DYRK1B
T11 construct: purchased Caliper LifeSciences
Procedure: as §1

DYRK4 = biological target: T12, DYRK4 (Homo sapiens, UniProt Q9NR20); test: ProfilerPro Kinase Selectivity, DYRK4
T12 construct: purchased Caliper LifeSciences
Procedure: as §1

EGFR = biological target: T13, EGFR (Homo sapiens, UniProt P00533); test: ProfilerPro Kinase Selectivity, EGFR
T13 construct: purchased Caliper LifeSciences
Procedure: as §1

EPHA2 = biological target: T14, EPHA2 (Homo sapiens, UniProt P29317); test: ProfilerPro Kinase Selectivity, EPHA2
T14 construct: purchased Caliper LifeSciences
Procedure: as §1

EPHA5 = biological target: T15, EPHA5 (Homo sapiens, UniProt P54756); test: ProfilerPro Kinase Selectivity, EPHA5
T15 construct: purchased Caliper LifeSciences
Procedure: as §1

EPHB3 = biological target: T16, EPHB3 (Homo sapiens, UniProt P54753); test: ProfilerPro Kinase Selectivity, EPHB3
T16 construct: purchased Caliper LifeSciences
Procedure: as §1

FGFR1 = biological target: T17, FGFR1 (Homo sapiens, UniProt P11362); test: ProfilerPro Kinase Selectivity, FGFR1
T17 construct: purchased Caliper LifeSciences
Procedure: as §1

FGFR2 N549H = biological target: T18, FGFR2 N549H (Homo sapiens, UniProt P21802, N549H); test: ProfilerPro Kinase Selectivity, FGFR2 N549H
T18 construct: purchased Caliper LifeSciences
Procedure: as §1

FGFR3 = biological target: T19, FGFR3 (Homo sapiens, UniProt P22607); test: ProfilerPro Kinase Selectivity, FGFR3
T19 construct: purchased Caliper LifeSciences
Procedure: as §1

FGR = biological target: T20, FGR (Homo sapiens, UniProt P09769); test: ProfilerPro Kinase Selectivity, FGR
T20 construct: purchased Caliper LifeSciences
Procedure: as §1

IKKE = biological target: T21, IKKE (Homo sapiens, UniProt Q14164); test: ProfilerPro Kinase Selectivity, IKKE
T21 construct: purchased Caliper LifeSciences
Procedure: as §1

INSR = biological target: T22, INSR (Homo sapiens, UniProt P06213); test: ProfilerPro Kinase Selectivity, INSR
T22 construct: purchased Caliper LifeSciences
Procedure: as §1

ITK = biological target: T23, ITK (Homo sapiens, UniProt Q08881); test: ProfilerPro Kinase Selectivity, ITK
T23 construct: purchased Caliper LifeSciences
Procedure: as §1

KDR = biological target: T24, KDR (Homo sapiens, UniProt P35968); test: ProfilerPro Kinase Selectivity, KDR
T24 construct: purchased Caliper LifeSciences
Procedure: as §1

MAPKAPK2 = biological target: T25, MAPKAPK2 (Homo sapiens, UniProt P49137); test: ProfilerPro Kinase Selectivity, MAPKAPK2
T25 construct: purchased Caliper LifeSciences
Procedure: as §1

MAPKAPK3 = biological target: T26, MAPKAPK3 (Homo sapiens, UniProt Q16644); test: ProfilerPro Kinase Selectivity, MAPKAPK3
T26 construct: purchased Caliper LifeSciences
Procedure: as §1

MSK1 = biological target: T27, MSK1 (Homo sapiens, UniProt O75582); test: ProfilerPro Kinase Selectivity, MSK1
T27 construct: purchased Caliper LifeSciences
Procedure: as §1

NTRK2 = biological target: T28, NTRK2 (Homo sapiens, UniProt Q16620); test: ProfilerPro Kinase Selectivity, NTRK2
T28 construct: purchased Caliper LifeSciences
Procedure: as §1

P38D = biological target: T29, P38D (Homo sapiens, UniProt O15264); test: ProfilerPro Kinase Selectivity, P38D
T29 construct: purchased Caliper LifeSciences
Procedure: as §1

PAK2 = biological target: T30, PAK2 (Homo sapiens, UniProt Q13177); test: ProfilerPro Kinase Selectivity, PAK2
T30 construct: purchased Caliper LifeSciences
Procedure: as §1

PAK5 = biological target: T31, PAK5 (Homo sapiens, UniProt Q9P286); test: ProfilerPro Kinase Selectivity, PAK5
T31 construct: purchased Caliper LifeSciences
Procedure: as §1

PIM2 = biological target: T32, PIM2 (Homo sapiens, UniProt Q9P1W9); test: ProfilerPro Kinase Selectivity, PIM2
T32 construct: purchased Caliper LifeSciences
Procedure: as §1

PIM-3 = biological target: T33, PIM-3 (Homo sapiens, UniProt Q86V86); test: ProfilerPro Kinase Selectivity, PIM-3
T33 construct: purchased Caliper LifeSciences
Procedure: as §1

PRKCD = biological target: T34, PRKCD (Homo sapiens, UniProt Q05655); test: ProfilerPro Kinase Selectivity, PRKCD
T34 construct: purchased Caliper LifeSciences
Procedure: as §1

PRKCZ = biological target: T35, PRKCZ (Homo sapiens, UniProt Q05513); test: ProfilerPro Kinase Selectivity, PRKCZ
T35 construct: purchased Caliper LifeSciences
Procedure: as §1

RSK3 = biological target: T36, RSK3 (Homo sapiens, UniProt Q15349); test: ProfilerPro Kinase Selectivity, RSK3
T36 construct: purchased Caliper LifeSciences
Procedure: as §1

RSK4 = biological target: T37, RSK4 (Homo sapiens, UniProt Q9UK32); test: ProfilerPro Kinase Selectivity, RSK4
T37 construct: purchased Caliper LifeSciences
Procedure: as §1

SYK = biological target: T38, SYK (Homo sapiens, UniProt P43405); test: ProfilerPro Kinase Selectivity, SYK
T38 construct: purchased Caliper LifeSciences
Procedure: as §1

TXK = biological target: T39, TXK (Homo sapiens, UniProt P42681); test: ProfilerPro Kinase Selectivity, TXK
T39 construct: purchased Caliper LifeSciences
Procedure: as §1

T26 sequence (Q16644 whole entry, species assumed): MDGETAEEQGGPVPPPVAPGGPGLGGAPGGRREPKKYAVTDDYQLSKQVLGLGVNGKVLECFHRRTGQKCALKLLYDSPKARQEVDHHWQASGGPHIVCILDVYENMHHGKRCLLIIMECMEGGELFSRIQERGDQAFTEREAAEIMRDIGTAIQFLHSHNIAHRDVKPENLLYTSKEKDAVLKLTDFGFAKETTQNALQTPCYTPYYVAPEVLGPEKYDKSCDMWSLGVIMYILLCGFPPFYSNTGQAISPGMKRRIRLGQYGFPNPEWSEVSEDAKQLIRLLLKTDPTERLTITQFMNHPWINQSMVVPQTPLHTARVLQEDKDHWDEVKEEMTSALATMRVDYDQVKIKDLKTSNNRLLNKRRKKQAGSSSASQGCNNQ
T12 sequence (Q9NR20 whole entry, species assumed): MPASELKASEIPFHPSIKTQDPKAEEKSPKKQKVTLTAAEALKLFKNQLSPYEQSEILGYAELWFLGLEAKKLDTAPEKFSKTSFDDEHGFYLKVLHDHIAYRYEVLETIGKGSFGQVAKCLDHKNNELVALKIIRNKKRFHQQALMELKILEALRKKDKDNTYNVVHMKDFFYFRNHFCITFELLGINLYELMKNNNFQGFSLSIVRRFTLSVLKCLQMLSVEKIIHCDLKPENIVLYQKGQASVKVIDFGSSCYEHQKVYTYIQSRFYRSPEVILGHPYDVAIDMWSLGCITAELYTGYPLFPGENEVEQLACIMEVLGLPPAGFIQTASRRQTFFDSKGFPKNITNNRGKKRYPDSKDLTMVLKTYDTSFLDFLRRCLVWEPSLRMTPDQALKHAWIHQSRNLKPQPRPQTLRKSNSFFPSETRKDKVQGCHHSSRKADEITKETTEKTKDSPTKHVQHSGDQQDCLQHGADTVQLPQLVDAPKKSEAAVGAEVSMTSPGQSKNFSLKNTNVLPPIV
T14 sequence (P29317 24-976, species assumed): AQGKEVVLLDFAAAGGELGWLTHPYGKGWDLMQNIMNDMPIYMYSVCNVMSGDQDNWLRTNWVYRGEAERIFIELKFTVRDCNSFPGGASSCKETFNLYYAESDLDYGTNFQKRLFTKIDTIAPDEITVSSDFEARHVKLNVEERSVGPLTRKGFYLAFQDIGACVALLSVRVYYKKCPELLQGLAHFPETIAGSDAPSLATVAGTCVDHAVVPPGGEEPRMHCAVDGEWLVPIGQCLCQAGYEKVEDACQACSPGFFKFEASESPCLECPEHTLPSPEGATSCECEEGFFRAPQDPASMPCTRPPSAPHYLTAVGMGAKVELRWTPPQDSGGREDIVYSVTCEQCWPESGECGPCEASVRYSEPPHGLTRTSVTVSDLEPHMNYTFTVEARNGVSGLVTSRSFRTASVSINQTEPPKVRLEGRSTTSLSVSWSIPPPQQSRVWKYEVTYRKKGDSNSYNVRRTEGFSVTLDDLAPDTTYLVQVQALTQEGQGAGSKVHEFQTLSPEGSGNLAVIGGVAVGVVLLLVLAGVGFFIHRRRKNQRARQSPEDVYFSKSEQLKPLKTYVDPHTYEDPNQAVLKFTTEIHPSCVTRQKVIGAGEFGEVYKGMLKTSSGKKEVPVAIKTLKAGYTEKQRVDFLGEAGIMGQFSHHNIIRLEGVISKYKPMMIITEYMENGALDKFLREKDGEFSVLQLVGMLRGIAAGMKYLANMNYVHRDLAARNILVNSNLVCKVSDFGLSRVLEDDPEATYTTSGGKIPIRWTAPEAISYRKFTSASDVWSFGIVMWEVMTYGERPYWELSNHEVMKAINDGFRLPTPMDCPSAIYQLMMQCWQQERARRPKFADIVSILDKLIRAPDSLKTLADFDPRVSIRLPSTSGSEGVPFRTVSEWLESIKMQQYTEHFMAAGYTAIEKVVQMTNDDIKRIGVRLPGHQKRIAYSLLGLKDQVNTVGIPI
T13 sequence (P00533 25-1210, species assumed): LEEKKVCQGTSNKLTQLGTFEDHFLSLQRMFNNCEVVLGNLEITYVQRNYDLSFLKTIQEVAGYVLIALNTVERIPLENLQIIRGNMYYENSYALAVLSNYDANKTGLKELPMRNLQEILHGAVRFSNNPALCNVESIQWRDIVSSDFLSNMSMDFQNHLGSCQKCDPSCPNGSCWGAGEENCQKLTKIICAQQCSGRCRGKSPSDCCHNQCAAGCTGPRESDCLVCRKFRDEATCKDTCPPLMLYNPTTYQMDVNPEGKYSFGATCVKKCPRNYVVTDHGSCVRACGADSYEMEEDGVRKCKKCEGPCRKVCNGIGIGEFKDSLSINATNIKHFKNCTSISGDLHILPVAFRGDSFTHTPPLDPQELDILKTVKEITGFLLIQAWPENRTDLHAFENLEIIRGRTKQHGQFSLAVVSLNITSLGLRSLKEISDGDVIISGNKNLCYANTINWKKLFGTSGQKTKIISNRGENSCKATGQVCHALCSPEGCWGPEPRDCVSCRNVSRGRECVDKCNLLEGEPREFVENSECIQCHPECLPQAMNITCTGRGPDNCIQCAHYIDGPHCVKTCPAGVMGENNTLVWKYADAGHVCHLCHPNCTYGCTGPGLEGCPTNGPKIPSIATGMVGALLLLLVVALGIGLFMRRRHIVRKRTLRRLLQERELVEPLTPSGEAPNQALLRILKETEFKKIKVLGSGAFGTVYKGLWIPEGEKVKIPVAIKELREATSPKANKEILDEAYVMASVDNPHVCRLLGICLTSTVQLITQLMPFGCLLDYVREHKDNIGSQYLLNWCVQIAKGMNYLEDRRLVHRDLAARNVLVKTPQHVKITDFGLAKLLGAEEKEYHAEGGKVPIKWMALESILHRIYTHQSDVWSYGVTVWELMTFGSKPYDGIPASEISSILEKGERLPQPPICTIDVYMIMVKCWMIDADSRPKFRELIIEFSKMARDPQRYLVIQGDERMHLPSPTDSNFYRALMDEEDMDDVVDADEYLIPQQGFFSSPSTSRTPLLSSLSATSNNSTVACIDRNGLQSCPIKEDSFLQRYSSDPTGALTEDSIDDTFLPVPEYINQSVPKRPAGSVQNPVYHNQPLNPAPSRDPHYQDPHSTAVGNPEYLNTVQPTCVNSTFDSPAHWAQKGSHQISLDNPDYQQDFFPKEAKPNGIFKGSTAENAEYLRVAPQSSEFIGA
T20 sequence (P09769 whole entry, species assumed): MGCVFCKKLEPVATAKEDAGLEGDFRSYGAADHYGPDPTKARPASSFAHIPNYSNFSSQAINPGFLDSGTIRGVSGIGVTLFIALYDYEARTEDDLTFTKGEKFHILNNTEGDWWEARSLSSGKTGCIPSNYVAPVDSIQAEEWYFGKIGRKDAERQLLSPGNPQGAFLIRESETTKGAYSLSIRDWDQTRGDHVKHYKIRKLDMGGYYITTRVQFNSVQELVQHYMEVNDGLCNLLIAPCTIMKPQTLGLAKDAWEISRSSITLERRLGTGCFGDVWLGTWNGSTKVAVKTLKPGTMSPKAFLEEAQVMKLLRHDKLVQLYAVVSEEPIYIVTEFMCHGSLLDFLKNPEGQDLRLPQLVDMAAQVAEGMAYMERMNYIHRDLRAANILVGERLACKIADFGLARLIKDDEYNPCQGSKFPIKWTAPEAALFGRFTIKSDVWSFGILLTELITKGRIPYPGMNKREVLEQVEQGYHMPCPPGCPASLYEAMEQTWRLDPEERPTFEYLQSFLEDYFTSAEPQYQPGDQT
T23 sequence (Q08881 whole entry, species assumed): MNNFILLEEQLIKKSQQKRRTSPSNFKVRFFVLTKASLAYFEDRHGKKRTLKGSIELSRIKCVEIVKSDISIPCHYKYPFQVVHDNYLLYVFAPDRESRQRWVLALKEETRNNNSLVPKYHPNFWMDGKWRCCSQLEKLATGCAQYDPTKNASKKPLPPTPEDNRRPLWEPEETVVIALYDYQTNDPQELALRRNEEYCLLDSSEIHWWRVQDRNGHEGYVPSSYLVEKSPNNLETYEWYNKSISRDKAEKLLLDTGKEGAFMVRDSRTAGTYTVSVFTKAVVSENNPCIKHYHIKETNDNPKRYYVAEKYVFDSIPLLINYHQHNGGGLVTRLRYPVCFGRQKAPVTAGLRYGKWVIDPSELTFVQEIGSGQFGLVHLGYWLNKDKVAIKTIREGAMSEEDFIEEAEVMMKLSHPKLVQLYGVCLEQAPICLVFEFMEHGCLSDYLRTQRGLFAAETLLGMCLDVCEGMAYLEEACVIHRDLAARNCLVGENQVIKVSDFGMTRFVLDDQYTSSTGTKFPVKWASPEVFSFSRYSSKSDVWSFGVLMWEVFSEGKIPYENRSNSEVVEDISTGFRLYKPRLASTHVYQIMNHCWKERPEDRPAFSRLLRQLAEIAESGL
T29 sequence (O15264 whole entry): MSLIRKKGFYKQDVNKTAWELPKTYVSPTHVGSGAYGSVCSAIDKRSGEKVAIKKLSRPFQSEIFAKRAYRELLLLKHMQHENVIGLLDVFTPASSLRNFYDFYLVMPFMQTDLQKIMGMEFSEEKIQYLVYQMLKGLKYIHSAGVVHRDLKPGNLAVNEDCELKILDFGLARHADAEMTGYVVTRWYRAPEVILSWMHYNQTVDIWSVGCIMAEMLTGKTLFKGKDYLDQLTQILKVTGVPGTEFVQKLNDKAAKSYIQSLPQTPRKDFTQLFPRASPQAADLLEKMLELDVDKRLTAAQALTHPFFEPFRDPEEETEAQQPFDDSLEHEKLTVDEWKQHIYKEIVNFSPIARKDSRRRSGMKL

| Structure (SMILES) | inhibition at 10 µM (ABL H396P) | inhibition at 10 µM (ABL1 G250E) | inhibition at 10 µM (BRSK1) | inhibition at 10 µM (BTK) | inhibition at 10 µM (CAMK1A) | inhibition at 10 µM (CAMK1D) | inhibition at 10 µM (CK1E) | inhibition at 10 µM (CSNK1A1) | inhibition at 10 µM (C-TAK1) | inhibition at 10 µM (DYRK1A) | inhibition at 10 µM (DYRK1B) | inhibition at 10 µM (DYRK4) | inhibition at 10 µM (EGFR) | inhibition at 10 µM (EPHA2) | inhibition at 10 µM (EPHA5) | inhibition at 10 µM (EPHB3) | inhibition at 10 µM (FGFR1) | inhibition at 10 µM (FGFR2 N549H) | inhibition at 10 µM (FGFR3) | inhibition at 10 µM (FGR) | other results |
| --- | --- | --- | --- | --- | --- | --- | --- | --- | --- | --- | --- | --- | --- | --- | --- | --- | --- | --- | --- | --- | --- |
| CSc1sc(-c2cc[nH]n2)c2c1C(=O)CCC2 [Example 1, 3-(Methylsulfanyl)-1-(1H-pyrazol-3-yl)-6,7-dihydro-2-benzothiophen-4(5H)-one] | 10.3% | 5% | -0.2% | 3.1% | 7.4% | -3.1% | 10.9% | 12.4% | 5.3% | 44% | 40.2% | -1.1% | -3.1% | 0.7% | -3.1% | -1% | 1.9% | 1.4% | 9% | -7.2% | inhibition at 10 µM (IKKE): -1.5%; inhibition at 10 µM (INSR): 3.4%; inhibition at 10 µM (ITK): 4.8%; inhibition at 10 µM (KDR): 16.4%; inhibition at 10 µM (MAPKAPK2): 4.1%; inhibition at 10 µM (MAPKAPK3): 0.1%; inhibition at 10 µM (MSK1): 5.1%; inhibition at 10 µM (NTRK2): 16.9%; inhibition at 10 µM (P38D): 4.2%; inhibition at 10 µM (PAK2): 4.6%; inhibition at 10 µM (PAK5): -0.6%; inhibition at 10 µM (PIM2): 1.6%; inhibition at 10 µM (PIM-3): 23.7%; inhibition at 10 µM (PRKCD): -14.8%; inhibition at 10 µM (PRKCZ): 0.4%; inhibition at 10 µM (RSK3): 9.4%; inhibition at 10 µM (RSK4): 2.9%; inhibition at 10 µM (SYK): 49.9%; inhibition at 10 µM (TXK): 22.7% |
| CC1(C)CC(=O)c2c(SC3CCCC3)sc(-c3cc[nH]n3)c2C1 [Example 7, 3-(Cyclopentylsulfanyl)-6,6-dimethyl-1-(1H-pyrazol-3-yl)-6,7-dihydro-2-benzothiophen-4(5H)-one] | 3.1% | 6.4% | 3.8% | 4.8% | 6% | 4% | 5.1% | 2% | 4.7% | 0% | 4.7% | 0.4% | 2.2% | 0.7% | 1.5% | 2.2% | 7.4% | -5.8% | -2.6% | -1.6% | inhibition at 10 µM (IKKE): 1.3%; inhibition at 10 µM (INSR): 0.9%; inhibition at 10 µM (ITK): -2.9%; inhibition at 10 µM (KDR): -0.8%; inhibition at 10 µM (MAPKAPK2): 2%; inhibition at 10 µM (MAPKAPK3): -1%; inhibition at 10 µM (MSK1): -2.8%; inhibition at 10 µM (NTRK2): 7%; inhibition at 10 µM (P38D): -0.3%; inhibition at 10 µM (PAK2): 2.4%; inhibition at 10 µM (PAK5): -4.4%; inhibition at 10 µM (PIM2): -1.6%; inhibition at 10 µM (PIM-3): 8.2%; inhibition at 10 µM (PRKCD): 12.6%; inhibition at 10 µM (PRKCZ): 0.5%; inhibition at 10 µM (RSK3): 2%; inhibition at 10 µM (RSK4): -5.6%; inhibition at 10 µM (SYK): 5.8%; inhibition at 10 µM (TXK): 8.4% |
